Assay results taken from PubChem BioAssay (NCI).
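Where inhibition never reached the appropriate level, the endpoint shown equals the highest concentration tested. Otherwise, values were interpolated linearly from a five-concentration, 48-hour dose response in 96-well plates. Definition used: TGI = concentration required for complete inhibition of growth.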

Experiments:
Assay in all cases: NCI anticancer screen, dose series, 48 h
T-47D breast = system: T-47D breast
NCI/ADR-RES ovarian = system: NCI/ADR-RES ovarian
HCT-15 colon = system: HCT-15 colon
HCC-2998 colon = system: HCC-2998 colon
IGROV1 ovarian = system: IGROV1 ovarian
NCI-H522 lung = system: NCI-H522 lung
SN12C renal = system: SN12C renal
SF-268 CNS = system: SF-268 CNS
SK-MEL-5 melanoma = system: SK-MEL-5 melanoma
SK-OV-3 ovarian = system: SK-OV-3 ovarian
OVCAR-5 ovarian = system: OVCAR-5 ovarian
CCRF-CEM leukemia = system: CCRF-CEM leukemia
U251 CNS = system: U251 CNS
SNB-75 CNS = system: SNB-75 CNS
OVCAR-8 ovarian = system: OVCAR-8 ovarian
NCI-H460 lung = system: NCI-H460 lung
SK-MEL-2 melanoma = system: SK-MEL-2 melanoma
HOP-62 NSCLC = system: HOP-62 NSCLC
UACC-62 melanoma = system: UACC-62 melanoma
K-562 leukemia = system: K-562 leukemia
HCT-116 colon = system: HCT-116 colon
MDA-N = system: MDA-N
RXF 393 renal = system: RXF 393 renal
CAKI-1 renal = system: CAKI-1 renal
MALME-3M melanoma = system: MALME-3M melanoma
HOP-92 NSCLC = system: HOP-92 NSCLC
MOLT-4 leukemia = system: MOLT-4 leukemia
SNB-19 CNS = system: SNB-19 CNS
MDA-MB-435 = system: MDA-MB-435
OVCAR-3 ovarian = system: OVCAR-3 ovarian
ACHN renal = system: ACHN renal
A549 NSCLC = system: A549 NSCLC
OVCAR-4 ovarian = system: OVCAR-4 ovarian
UO-31 renal = system: UO-31 renal
SW-620 colon = system: SW-620 colon
A498 renal = system: A498 renal
SF-295 CNS = system: SF-295 CNS
COLO 205 colon = system: COLO 205 colon
M14 melanoma = system: M14 melanoma
SF-539 CNS = system: SF-539 CNS
DU-145 prostate = system: DU-145 prostate
UACC-257 melanoma = system: UACC-257 melanoma
NCI-H226 lung = system: NCI-H226 lung
HS 578T breast = system: HS 578T breast
786-0 renal = system: 786-0 renal
NCI-H23 lung = system: NCI-H23 lung
MDA-MB-231 breast = system: MDA-MB-231 breast
TK-10 renal = system: TK-10 renal
SK-MEL-28 melanoma = system: SK-MEL-28 melanoma
KM12 colon = system: KM12 colon
LOX IMVI melanoma = system: LOX IMVI melanoma
HT29 colon = system: HT29 colon
EKVX NSCLC = system: EKVX NSCLC
MCF7 breast = system: MCF7 breast
PC-3 prostate = system: PC-3 prostate
HL-60(TB) leukemia = system: HL-60(TB) leukemia
BT-549 breast = system: BT-549 breast
RPMI-8226 leukemia = system: RPMI-8226 leukemia
SR leukemia = system: SR leukemia

Cc1n[nH]c(=O)n1/N=C/c1ccncc1
TGI (T-47D breast): > 100 µM
TGI (NCI/ADR-RES ovarian): > 100 µM
TGI (HCT-15 colon): > 100 µM
TGI (HCC-2998 colon): > 100 µM
TGI (IGROV1 ovarian): > 100 µM
TGI (NCI-H522 lung): > 100 µM
TGI (SN12C renal): > 100 µM
TGI (SF-268 CNS): > 100 µM
TGI (SK-MEL-5 melanoma): > 100 µM
TGI (SK-OV-3 ovarian): > 100 µM
TGI (OVCAR-5 ovarian): > 100 µM
TGI (CCRF-CEM leukemia): > 100 µM
TGI (U251 CNS): > 100 µM
TGI (SNB-75 CNS): > 100 µM
TGI (OVCAR-8 ovarian): > 100 µM
TGI (NCI-H460 lung): > 100 µM
TGI (SK-MEL-2 melanoma): > 100 µM
TGI (HOP-62 NSCLC): > 100 µM
TGI (UACC-62 melanoma): > 100 µM
TGI (K-562 leukemia): > 100 µM
TGI (HCT-116 colon): > 100 µM
TGI (MDA-N): > 100 µM
TGI (RXF 393 renal): > 100 µM
TGI (CAKI-1 renal): > 100 µM
TGI (MALME-3M melanoma): > 100 µM
TGI (HOP-92 NSCLC): > 100 µM
TGI (MOLT-4 leukemia): > 100 µM
TGI (SNB-19 CNS): > 100 µM
TGI (MDA-MB-435): > 100 µM
TGI (OVCAR-3 ovarian): > 100 µM
TGI (ACHN renal): > 100 µM
TGI (A549 NSCLC): > 100 µM
TGI (OVCAR-4 ovarian): > 100 µM
TGI (UO-31 renal): > 100 µM
TGI (SW-620 colon): > 100 µM
TGI (A498 renal): > 100 µM
TGI (SF-295 CNS): > 100 µM
TGI (COLO 205 colon): > 100 µM
TGI (M14 melanoma): > 100 µM
TGI (SF-539 CNS): > 100 µM
TGI (DU-145 prostate): > 100 µM
TGI (UACC-257 melanoma): > 100 µM
TGI (NCI-H226 lung): > 100 µM
TGI (HS 578T breast): > 100 µM
TGI (786-0 renal): > 100 µM
TGI (NCI-H23 lung): > 100 µM
TGI (MDA-MB-231 breast): > 100 µM
TGI (TK-10 renal): > 100 µM
TGI (SK-MEL-28 melanoma): > 100 µM
TGI (KM12 colon): > 100 µM
TGI (LOX IMVI melanoma): > 100 µM
TGI (HT29 colon): > 100 µM
TGI (EKVX NSCLC): > 100 µM

O=c1oc2ccccc2c(O)c1C(c1ccc2c(c1)Cc1ccccc1-2)c1c(O)c2ccccc2oc1=O
TGI (T-47D breast): > 100 µM
TGI (NCI/ADR-RES ovarian): > 100 µM
TGI (HCT-15 colon): 57.2 µM
TGI (HCC-2998 colon): 33.6 µM
TGI (IGROV1 ovarian): > 100 µM
TGI (MCF7 breast): 51.1 µM
TGI (NCI-H522 lung): 49.2 µM
TGI (SN12C renal): 41.2 µM
TGI (SF-268 CNS): 68.4 µM
TGI (SK-MEL-5 melanoma): 39.9 µM
TGI (SK-OV-3 ovarian): 90.8 µM
TGI (OVCAR-5 ovarian): 66.1 µM
TGI (CCRF-CEM leukemia): > 100 µM
TGI (U251 CNS): 60.3 µM
TGI (SNB-75 CNS): > 100 µM
TGI (OVCAR-8 ovarian): > 100 µM
TGI (NCI-H460 lung): 62.4 µM
TGI (SK-MEL-2 melanoma): 74.2 µM
TGI (HOP-62 NSCLC): > 100 µM
TGI (UACC-62 melanoma): 49.8 µM
TGI (HCT-116 colon): > 100 µM
TGI (MDA-N): 36.7 µM
TGI (RXF 393 renal): 35.5 µM
TGI (CAKI-1 renal): 41.5 µM
TGI (MALME-3M melanoma): 71.4 µM
TGI (HOP-92 NSCLC): 49.3 µM
TGI (MOLT-4 leukemia): > 100 µM
TGI (SNB-19 CNS): > 100 µM
TGI (MDA-MB-435): 77.4 µM
TGI (OVCAR-3 ovarian): > 100 µM
TGI (ACHN renal): 45.6 µM
TGI (A549 NSCLC): 44.4 µM
TGI (OVCAR-4 ovarian): > 100 µM
TGI (UO-31 renal): 33.1 µM
TGI (SW-620 colon): 90.9 µM
TGI (A498 renal): > 100 µM
TGI (SF-295 CNS): 57.4 µM
TGI (PC-3 prostate): > 100 µM
TGI (COLO 205 colon): 37.2 µM
TGI (M14 melanoma): 41 µM
TGI (SF-539 CNS): 43.5 µM
TGI (DU-145 prostate): > 100 µM
TGI (UACC-257 melanoma): > 100 µM
TGI (NCI-H226 lung): > 100 µM
TGI (HS 578T breast): 86.3 µM
TGI (786-0 renal): 66.9 µM
TGI (HL-60(TB) leukemia): 59.8 µM
TGI (NCI-H23 lung): 69.5 µM
TGI (MDA-MB-231 breast): 57.9 µM
TGI (BT-549 breast): 53.6 µM
TGI (RPMI-8226 leukemia): > 100 µM
TGI (TK-10 renal): > 100 µM
TGI (SK-MEL-28 melanoma): 57.6 µM
TGI (KM12 colon): 49.1 µM
TGI (LOX IMVI melanoma): 66.7 µM
TGI (HT29 colon): > 100 µM
TGI (EKVX NSCLC): > 100 µM

COc1ccc(NS(=O)c2ccccc2OC)cc1 (stereo unspecified)
TGI (T-47D breast): 35.2 µM
TGI (NCI/ADR-RES ovarian): > 100 µM
TGI (HCT-15 colon): > 100 µM
TGI (IGROV1 ovarian): > 100 µM
TGI (MCF7 breast): 67.3 µM
TGI (NCI-H522 lung): 52.5 µM
TGI (SN12C renal): > 100 µM
TGI (SF-268 CNS): 39.6 µM
TGI (SK-MEL-5 melanoma): 54.4 µM
TGI (OVCAR-5 ovarian): > 100 µM
TGI (CCRF-CEM leukemia): > 100 µM
TGI (U251 CNS): 67.2 µM
TGI (OVCAR-8 ovarian): > 100 µM
TGI (NCI-H460 lung): > 100 µM
TGI (SK-MEL-2 melanoma): 46.6 µM
TGI (HOP-62 NSCLC): > 100 µM
TGI (UACC-62 melanoma): 20.5 µM
TGI (K-562 leukemia): > 100 µM
TGI (HCT-116 colon): > 100 µM
TGI (MDA-N): > 100 µM
TGI (CAKI-1 renal): 68.6 µM
TGI (MALME-3M melanoma): 41.1 µM
TGI (MOLT-4 leukemia): > 100 µM
TGI (SNB-19 CNS): > 100 µM
TGI (MDA-MB-435): > 100 µM
TGI (OVCAR-3 ovarian): > 100 µM
TGI (ACHN renal): > 100 µM
TGI (A549 NSCLC): 79.8 µM
TGI (OVCAR-4 ovarian): > 100 µM
TGI (UO-31 renal): 28.2 µM
TGI (SW-620 colon): > 100 µM
TGI (SR leukemia): > 100 µM
TGI (SF-295 CNS): > 100 µM
TGI (COLO 205 colon): 48.6 µM
TGI (M14 melanoma): > 100 µM
TGI (SF-539 CNS): 35.9 µM
TGI (DU-145 prostate): > 100 µM
TGI (UACC-257 melanoma): > 100 µM
TGI (NCI-H226 lung): 41.8 µM
TGI (HS 578T breast): 84.5 µM
TGI (786-0 renal): > 100 µM
TGI (HL-60(TB) leukemia): > 100 µM
TGI (NCI-H23 lung): > 100 µM
TGI (MDA-MB-231 breast): > 100 µM
TGI (RPMI-8226 leukemia): > 100 µM
TGI (TK-10 renal): > 100 µM
TGI (SK-MEL-28 melanoma): > 100 µM
TGI (KM12 colon): 18.1 µM
TGI (LOX IMVI melanoma): > 100 µM
TGI (HT29 colon): > 100 µM
TGI (EKVX NSCLC): > 100 µM

CC(=O)c1sc(Nc2ccc(Cl)c(Cl)c2)nc1C
TGI (T-47D breast): > 100 µM
TGI (NCI/ADR-RES ovarian): > 100 µM
TGI (HCT-15 colon): > 100 µM
TGI (HCC-2998 colon): > 100 µM
TGI (IGROV1 ovarian): > 100 µM
TGI (MCF7 breast): > 100 µM
TGI (SN12C renal): > 100 µM
TGI (SF-268 CNS): > 100 µM
TGI (SK-MEL-5 melanoma): > 100 µM
TGI (SK-OV-3 ovarian): > 100 µM
TGI (OVCAR-5 ovarian): > 100 µM
TGI (U251 CNS): > 100 µM
TGI (SNB-75 CNS): > 100 µM
TGI (OVCAR-8 ovarian): > 100 µM
TGI (NCI-H460 lung): > 100 µM
TGI (HOP-62 NSCLC): > 100 µM
TGI (UACC-62 melanoma): > 100 µM
TGI (HCT-116 colon): > 100 µM
TGI (MDA-N): > 100 µM
TGI (RXF 393 renal): > 100 µM
TGI (CAKI-1 renal): > 100 µM
TGI (MALME-3M melanoma): > 100 µM
TGI (MOLT-4 leukemia): 83.8 µM
TGI (SNB-19 CNS): > 100 µM
TGI (MDA-MB-435): > 100 µM
TGI (OVCAR-3 ovarian): > 100 µM
TGI (ACHN renal): > 100 µM
TGI (A549 NSCLC): > 100 µM
TGI (OVCAR-4 ovarian): > 100 µM
TGI (UO-31 renal): > 100 µM
TGI (SW-620 colon): > 100 µM
TGI (A498 renal): > 100 µM
TGI (SR leukemia): > 100 µM
TGI (SF-295 CNS): > 100 µM
TGI (COLO 205 colon): > 100 µM
TGI (SF-539 CNS): > 100 µM
TGI (DU-145 prostate): > 100 µM
TGI (UACC-257 melanoma): > 100 µM
TGI (NCI-H226 lung): > 100 µM
TGI (786-0 renal): > 100 µM
TGI (NCI-H23 lung): > 100 µM
TGI (MDA-MB-231 breast): > 100 µM
TGI (BT-549 breast): > 100 µM
TGI (RPMI-8226 leukemia): > 100 µM
TGI (TK-10 renal): > 100 µM
TGI (SK-MEL-28 melanoma): > 100 µM
TGI (KM12 colon): > 100 µM
TGI (LOX IMVI melanoma): > 100 µM
TGI (HT29 colon): > 100 µM
TGI (EKVX NSCLC): > 100 µM
